Key:
[1] = biological target: T1, full length human TREX1 (Homo sapiens, UniProt Q9NSU2); assay: TREX1 Biochemical Assay (fluorescence assay, degradation of dsDNA substrate); settings: 150 pM TREX1, 60 nM dsDNA substrate, 25 minutes at room temperature; read-out: hTREX1 EC50
T1 construct: N-terminally His-Tev tagged full length human TREX1; His-Tev (His tag with TEV protease site) (N); made in house; host or cells: E. coli
T1 sequence (Q9NSU2 1-314): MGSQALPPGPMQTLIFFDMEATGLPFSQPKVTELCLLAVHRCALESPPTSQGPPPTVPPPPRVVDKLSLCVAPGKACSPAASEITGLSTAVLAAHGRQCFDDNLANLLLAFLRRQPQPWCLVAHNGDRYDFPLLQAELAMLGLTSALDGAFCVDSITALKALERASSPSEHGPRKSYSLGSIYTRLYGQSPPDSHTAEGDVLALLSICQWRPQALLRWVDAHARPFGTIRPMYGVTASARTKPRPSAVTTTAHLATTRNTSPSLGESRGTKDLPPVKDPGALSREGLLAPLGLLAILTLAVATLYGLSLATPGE
Method: Degradation of the dsDNA liberates free fluorophore to produce a fluorescent signal. Specifically, 7.5 μL of N-terminally His-Tev tagged full length human TREX1 (expressed in E. coli and purified in house) in reaction buffer (50 mM Tris (pH 7.4), 150 mM NaCl, 2 mM DTT, 0.1 mg/mL BSA, 0.01% (v/v) Tween-20 and 100 mM MgCl2) was added to a 384-well Black ProxiPlate Plus (Perkin Elmer) which already contained compound (150 nL) at varying concentrations as a 10-point dose-response in DMSO. To this was added 7.5 μL of dsDNA substrate (Strand A: 5′ TEX615/GCT AGG CAG 3′; Strand B: 5′ CTG CCT AGC/IAbRQSp (Integrated DNA Technologies)) in reaction buffer. Final concentrations were 150 pM TREX1, 60 nM dsDNA substrate in reaction buffer with 1.0% DMSO (v/v). After 25 minutes at room temperature, reactions were quenched by the addition of 5 μL of stop buffer (same as reaction buffer plus 200 mM EDTA). Final concentrations in the quenched reaction were 112.5 pM TREX1, 45 nM DNA and 50 mM EDTA in a volume of 20 μL. After a 5-minute incubation at room temperature, plates were read in a laser sourced Envision (Perkin-Elmer), measuring fluorescence at 615 nm following excitation w/570 nm light. IC50 values were calculated by comparing the measured fluorescence at 615 nm ratio relative to control wells pre-quenched w/stop buffer (100% inhibition) and no inhibitor (0% inhibition) controls as using non-linear least square four parameter fits and either Genedata or GraphPad Prism (GraphPad Software, Inc.).

[2] = biological target: T2, human TREX2 (residues M44-A279) (Homo sapiens, UniProt Q9BQ50); assay: TREX2 Biochemical Assay (fluorescence assay, degradation of dsDNA substrate); settings: 2.5 nM TREX2, 60 nM dsDNA substrate, 25 minutes at room temperature; read-out: hTREX2 EC50
T2 construct: human TREX2 (residues M44-A279, expressed in E. coli); His-Tev (His tag with TEV protease site) (N); made in house; host or cells: E. coli
T2 sequence (Q9BQ50 44-279 isoform Q9BQ50-1): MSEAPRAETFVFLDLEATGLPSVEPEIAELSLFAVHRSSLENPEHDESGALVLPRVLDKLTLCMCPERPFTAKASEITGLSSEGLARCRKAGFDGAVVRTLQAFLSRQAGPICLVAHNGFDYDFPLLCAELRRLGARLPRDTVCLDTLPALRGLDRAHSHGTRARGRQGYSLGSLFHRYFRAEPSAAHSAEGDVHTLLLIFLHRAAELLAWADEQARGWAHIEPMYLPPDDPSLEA
Method: Degradation of the dsDNA liberates free fluorophore to produce a fluorescent signal. Specifically, 7.5 μL of N-terminally His-Tev tagged human TREX2 (residues M44-A279, expressed in E. coli and purified in house) in reaction buffer (50 mM Tris (pH 7.4), 150 mM NaCl, 2 mM DTT, 0.1 mg/mL BSA, 0.01% (v/v) Tween-20 and 100 mM MgCl2) was added to a 384-well Black ProxiPlate Plus (Perkin Elmer) which already contained compound (150 nL) at varying concentrations as a 10-point dose-response in DMSO. To this was added 7.5 μL of dsDNA substrate (Strand A: 5′ TEX615/GCT AGG CAG 3′; Strand B: 5′ CTG CCT AGC/IAbRQSp (IDT)) in reaction buffer. Final concentrations were 2.5 nM TREX2, 60 nM dsDNA substrate in reaction buffer with 1.0% DMSO (v/v). After 25 minutes at room temperature, reactions were quenched by the addition of 5 μL of stop buffer (same as reaction buffer plus 200 mM EDTA). Final concentrations in the quenched reaction mixture were […] TREX2, 45 nM DNA and 50 mM EDTA in a volume of 20 μL. After a 5-minute incubation at room temperature, plates were read in a laser sourced Envision (Perkin-Elmer), measuring fluorescence at 615 nm following excitation w/570 nm light. IC50 values were calculated by comparing the measured fluorescence at 615 nm ratio relative to control wells pre-quenched w/stop buffer (100% inhibition) and no inhibitor (0% inhibition) controls as using non-linear least square four parameter fits and either Genedata or GraphPad Prism (GraphPad Software, Inc.).

EC50 [1] [µM]	EC50 [2] [µM]	Compound
1 to 10	10 to 100	O=C(c1cc(F)cc(F)c1)N(Cc1cccnc1)[C@@H](c1cn[nH]c1)c1ccc(Cl)cc1Cl [Compound 222]
1 to 10	10 to 100	O=C(O)CC[C@H](c1ccccc1Cl)N(Cc1cccnc1)C(=O)c1cc(F)cc(F)c1 [Compound 245]
0.1 to 1	10 to 100	O=C(O)c1ccc(CN(Cc2cccc(Cl)c2C(F)(F)F)C(=O)c2cc(F)cc(F)c2)cn1 [Compound 198]
< 0.1	1 to 10	O=C(O)c1ccc(CN(Cc2c(Cl)cccc2Cl)C(=O)c2cc(F)cc(F)c2)cn1 [Compound 186]
0.1 to 1	1 to 10	CC[C@H](c1cccc(OC2COC2)c1Cl)N(Cc1ccc(C(=O)O)nc1)C(=O)c1cc(F)cc(F)c1 [Compound 231]
< 0.1	1 to 10	O=C(O)c1ccc(CN(Cc2ncc3ccccc3c2Cl)C(=O)c2cc(F)cc(F)c2)cn1 [Compound 190]
1 to 10	10 to 100	COC(=O)CC[C@H](c1ccccc1Cl)N(Cc1cccnc1)C(=O)c1cc(F)cc(F)c1 [Compound 241]
< 0.1	1 to 10	COc1cccc(CN(Cc2ccc(C(=O)O)nc2)C(=O)c2cc(F)cc(F)c2)c1C [Compound 195]
< 0.1	10 to 100	COC(=O)CC[C@@H](c1ccccc1Cl)N(Cc1cccnc1)C(=O)c1cc(F)cc(F)c1 [Compound 242]
> 10	> 100	N#Cc1ccccc1CN(Cc1ccc(C(=O)O)nc1)C(=O)c1cc(F)cc(F)c1 [Compound 192]
1 to 10	10 to 100	O=C(c1cccc(F)c1)N(Cc1cccnc1)Cc1c(F)cccc1Cl [Compound 130]
< 0.1	1 to 10	O=C(O)c1ccc(CN(Cc2ccccc2Cl)C(=O)c2cc(F)cc(F)c2)cn1 [Compound 152]
< 0.1	< 1	CC[C@H](c1cccc(OC)c1C(F)(F)F)N(Cc1ccc(C(=O)O)nc1)C(=O)c1cc(F)cc(F)c1 [Compound 196]
0.1 to 1	10 to 100	Cn1ncc(CN(Cc2ccc(C(=O)O)nc2)C(=O)c2cc(F)cc(F)c2)c1Cl [Compound 184]
> 10	> 100	COc1cccc(CN(Cc2ccc(NC(C)=O)nc2)C(=O)c2cccc(F)c2)c1Cl [Compound 213, N-((6-acetamidopyridin-3-yl)methyl)-N-(2-chloro-3-methoxybenzyl)-3-fluorobenzamide]
1 to 10	> 100	CNC(=O)c1ccc(CN(Cc2ccc(Cl)cc2Cl)C(=O)c2cccc(F)c2)cn1 [Compound 144, 5-({N-[(2,4-dichlorophenyl)methyl]-1-(3-fluorophenyl)formamido}methyl)-N-methylpyridine-2-carboxamide]
> 10	> 100	C[C@@H](c1ccc(Cl)cc1Cl)N(Cc1cccnc1)C(=O)c1cccc(F)c1 [Compound 156]
> 10	> 100	O=C(c1cnon1)N(Cc1cccnc1)Cc1ccc(Cl)cc1Cl [Compound 114]
1 to 10	10 to 100	CC(C)[C@@H](c1ccc(Cl)cc1Cl)N(Cc1cccnc1)C(=O)c1cccc(F)c1 (single isomer, unassigned) [Compound 160]

Second part, the compound before the results:

Compound	EC50 [1] [µM]	EC50 [2] [µM]
Cc1ncc(C(=O)N(Cc2cccnc2)Cc2ccc(Cl)cc2Cl)cn1 [Compound 104]	> 10	> 100
O=C(c1cccc(F)c1)N(Cc1cccnc1)Cc1cc(Cl)cc(Cl)c1 [Compound 23]	> 10	> 100
O=C(c1cc(Br)c(O)c(Br)c1)N(Cc1cccnc1)Cc1ccc(Cl)cc1Cl [Compound 40]	> 10	> 100
O=C(c1cc(Br)c(O)c(Br)c1)N(Cc1cccnc1)Cc1cc(Cl)cc(Cl)c1 [Compound 53]	> 10	10 to 100
O=C(c1ccc(O)c(Br)c1)N(Cc1cccnc1)Cc1cc(Cl)cc(Cl)c1 [Compound 73]	> 10	> 100
CC(C)Oc1ccc(C(=O)N(Cc2cccnc2)Cc2ccc(Cl)cc2Cl)cc1 [Compound 90]	> 10	> 100
COc1cc(C(=O)N(Cc2cccnc2)Cc2ccc(Cl)cc2Cl)cc(Br)c1O [Compound 41]	> 10	> 100
Cc1cc(C(=O)N(Cc2cccnc2)Cc2cc(Cl)cc(Cl)c2)cc(C)c1O [Compound 69]	> 10	> 100
O=C(c1cc(Cl)c(O)c(Cl)c1)N(Cc1cccnc1)Cc1ccc(Cl)cc1Cl [Compound 27]	> 10	> 100
O=C(c1ccc(O)c(F)c1)N(Cc1cccnc1)Cc1cc(Cl)cc(Cl)c1 [Compound 57]	> 10	> 100
O=C(c1cccc(-c2ccccc2)c1)N(Cc1cccnc1)Cc1cc(Cl)cc(Cl)c1 [Compound 56]	> 10	> 100
O=C(c1cccc(Cl)c1)N(Cc1cccnc1)Cc1cc(Cl)cc(Cl)c1 [Compound 34]	> 10	> 100
COc1cc(C(=O)N(Cc2cccnc2)Cc2cc(Cl)cc(Cl)c2)ccc1F [Compound 50]	> 10	> 100
O=C(c1ccc(Cl)cc1Br)N(Cc1cccnc1)Cc1ccc(Cl)cc1Cl [Compound 14]	> 10	
O=C(c1ccc(Cl)cc1)N(Cc1cccnc1)Cc1ccc(Cl)cc1Cl [Compound 8]	> 10	
Cc1ccc(C(=O)N(Cc2cccnc2)Cc2ccc(Cl)cc2Cl)c(Br)c1 [Compound 9]	> 10	
O=C(c1ccc(Cl)c(Cl)c1)N(Cc1cccnc1)Cc1ccc(Cl)cc1Cl [Compound 7]	> 10	
O=C(c1ccc(Cl)cc1O)N(Cc1cccnc1)Cc1ccc(Cl)cc1Cl [Compound 17]	> 10	
O=C(c1ccc(O)c(Br)c1)N(Cc1cccnc1)Cc1ccc(Cl)cc1Cl [Compound 15]	> 10	
COc1cccc(C(=O)N(Cc2cccnc2)Cc2ccc(Cl)cc2Cl)c1 [Compound 13]	1 to 10	
O=C(c1ccc(Br)cc1Cl)N(Cc1cccnc1)Cc1ccc(Cl)cc1Cl [Compound 18]	> 10	
O=C(c1cc(Cl)ccc1O)N(Cc1cccnc1)Cc1ccc(Cl)cc1Cl [Compound 20]	> 10	
Cc1cc(C(=O)N(Cc2cccnc2)Cc2ccc(Cl)cc2Cl)ccc1Br [Compound 16]	> 10	
O=C(c1ccc(O)c(Cl)c1)N(Cc1cccnc1)Cc1ccc(Cl)cc1Cl [Compound 3]	> 10	
O=C(c1ccc(O)c(F)c1)N(Cc1cccnc1)Cc1ccc(Cl)cc1Cl [Compound 21]	> 10	
O=C(c1ccccc1F)N(Cc1cccnc1)Cc1ccc(Cl)cc1Cl [Compound 4]	> 10	

Source: US20230233541A1, “SUBSTITUTED BENZAMIDES AS MODULATORS OF TREX1” (Constellation Pharmaceuticals, Inc., priority 2020, published 2023)
